Consider two compounds from US20250188030A1, “Biphenyl and Phenylpyridine Compounds” (Pfizer Inc., priority 2023, published 2025).

Series [1] is described as follows: Metabolite profile in hepatocytes, recombinant human UGT enzymes, and dog plasma and urine. The conditions noted are these: hepatocytes (mouse, dog, human), plasma and urine from dogs. It counts as in vitro ADME. From the text: The metabolite profile of 2-(2′-cyclobutyl-3′-fluoro-6-{[(1R,3R)-3-{[(7S)-7-fluoro-5-azaspiro[3.4]octane-7-carbonyl]amino}cyclopentyl]oxy}[1, 1′-biphenyl]-3-yl)-2-methylpropanoic acid (Example A1) assessed in hepatocytes (mouse, dog, human), recombinant human UGT enzymes, and plasma and urine from dogs.
General methods/reviews of obtaining metabolite profile and identifying metabolites of a compound are described in: DAVLIE, 0., et al., “Assessment of Three Human in Vitro Systems in the Generation of Major Human Excretory and Circulating Metabolites,” Chemical Research in Toxicology, 2009, 22(2):357-368; KING, R., “Chapter Three—Biotransformations in Drug Metabolism.” Drug Metabolism Handbook: Concepts and Applications in Cancer Research, edited by Ala F. Nassar et al., Wiley, 2022, 17-38; WU, Y., et al., “Metabolite Identification in Preclinical and Clinical Phase of Drug Development,” Current Drug Metabolism, 2021, 22(11):838-857; GODZIEN, J., et al., “Chapter Fifteen—Metabolite Annotation and Identification.” Comprehensive Analytical Chemistry, Elsevier, 2018, 415-445.

Series [2] has as its system H3K9AC (HT1080 cells). Description: H3K9AC Sandwich ELISA Assay in HT1080 cells (KAT2A primary cell-based screening assay). Further details: species or system Human. The conditions noted are these: Homo sapiens, HT-1080, H3K9AC sandwich ELISA. Put shortly: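 Acetylated H3K9 quantified by luminescent sandwich ELISA (total H3 capture, H3K9ac detection) on HCl lysates of HT1080 cells. Cells had 24 h compound exposure at 37 °C, top concentration 10 µM, 10-point 3-fold series, 0.1% DMSO; IC50 from four-parameter fitting.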
On the technique in general: ELISA stands for enzyme-linked immunosorbent assay.

For series [3], the system named is MM.1S cells. The series can be described thus: MM1.S 10 Day Proliferation Assay (CellTiter-Glo). It counts as cell-based, Human. Particulars: Homo sapiens, MM1.S, 240 h. Put shortly: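 MM.1S cells, 500/well in ultra-low-attachment plates, were pre-incubated 16 h, then exposed to a 10-point 1:3 dilution series (top 10 μM final, 0.1% DMSO) for 10 days at 37 °C, with compound-containing medium refreshed at day 5. Viability was read by CellTiter-Glo luminescence; IC50 came from four-parameter fit.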

For series [4], the target named is KAT2A (Homo sapiens (Human), UniProt Q92830). The series can be described thus: KAT2A acetyltransferase biochemical assay (RapidFire mass spectrometry, AcCoA to CoA). Particulars: read-out: KAT2A Ki at 1 μM AcCoA, 5 μM H3 1-21 peptide, 0.5 nM KAT2A, 90-minute reaction.
Sequence of KAT2A (Q92830 whole entry): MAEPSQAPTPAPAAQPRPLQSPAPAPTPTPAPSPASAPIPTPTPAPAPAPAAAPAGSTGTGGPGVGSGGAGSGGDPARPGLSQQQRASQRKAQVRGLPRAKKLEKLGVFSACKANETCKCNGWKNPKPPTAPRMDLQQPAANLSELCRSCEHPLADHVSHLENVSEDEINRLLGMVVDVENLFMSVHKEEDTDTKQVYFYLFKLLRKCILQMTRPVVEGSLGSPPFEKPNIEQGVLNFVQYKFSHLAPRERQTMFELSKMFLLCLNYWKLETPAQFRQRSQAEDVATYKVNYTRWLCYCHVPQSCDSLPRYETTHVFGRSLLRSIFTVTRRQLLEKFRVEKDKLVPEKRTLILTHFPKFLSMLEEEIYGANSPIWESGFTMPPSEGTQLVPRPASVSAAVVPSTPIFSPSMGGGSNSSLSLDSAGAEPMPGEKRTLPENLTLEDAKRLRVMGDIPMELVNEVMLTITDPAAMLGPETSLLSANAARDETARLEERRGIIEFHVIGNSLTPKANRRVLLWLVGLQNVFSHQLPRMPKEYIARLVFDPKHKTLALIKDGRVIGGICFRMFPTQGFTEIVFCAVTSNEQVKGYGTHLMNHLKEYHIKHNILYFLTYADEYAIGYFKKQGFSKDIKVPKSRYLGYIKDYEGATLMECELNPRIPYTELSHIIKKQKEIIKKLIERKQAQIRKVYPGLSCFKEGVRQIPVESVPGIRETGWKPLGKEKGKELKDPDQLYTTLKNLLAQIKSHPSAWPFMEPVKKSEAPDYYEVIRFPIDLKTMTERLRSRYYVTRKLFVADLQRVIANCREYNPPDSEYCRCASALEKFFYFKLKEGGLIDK
Series [5] concerns the target KAT2B (Homo sapiens (Human), UniProt Q92831). The series can be described thus: KAT2B acetyltransferase biochemical assay (RapidFire mass spectrometry, AcCoA to CoA). Particulars: read-out: KAT2B Ki at 1 μM AcCoA; 1 μM AcCoA, 5 μM H3 1-21 peptide, 0.5 nM KAT2B, 90-minute reaction.

“Also recorded” adds a separate entry of the source.

Sequence of KAT2B (Q92831 2-832): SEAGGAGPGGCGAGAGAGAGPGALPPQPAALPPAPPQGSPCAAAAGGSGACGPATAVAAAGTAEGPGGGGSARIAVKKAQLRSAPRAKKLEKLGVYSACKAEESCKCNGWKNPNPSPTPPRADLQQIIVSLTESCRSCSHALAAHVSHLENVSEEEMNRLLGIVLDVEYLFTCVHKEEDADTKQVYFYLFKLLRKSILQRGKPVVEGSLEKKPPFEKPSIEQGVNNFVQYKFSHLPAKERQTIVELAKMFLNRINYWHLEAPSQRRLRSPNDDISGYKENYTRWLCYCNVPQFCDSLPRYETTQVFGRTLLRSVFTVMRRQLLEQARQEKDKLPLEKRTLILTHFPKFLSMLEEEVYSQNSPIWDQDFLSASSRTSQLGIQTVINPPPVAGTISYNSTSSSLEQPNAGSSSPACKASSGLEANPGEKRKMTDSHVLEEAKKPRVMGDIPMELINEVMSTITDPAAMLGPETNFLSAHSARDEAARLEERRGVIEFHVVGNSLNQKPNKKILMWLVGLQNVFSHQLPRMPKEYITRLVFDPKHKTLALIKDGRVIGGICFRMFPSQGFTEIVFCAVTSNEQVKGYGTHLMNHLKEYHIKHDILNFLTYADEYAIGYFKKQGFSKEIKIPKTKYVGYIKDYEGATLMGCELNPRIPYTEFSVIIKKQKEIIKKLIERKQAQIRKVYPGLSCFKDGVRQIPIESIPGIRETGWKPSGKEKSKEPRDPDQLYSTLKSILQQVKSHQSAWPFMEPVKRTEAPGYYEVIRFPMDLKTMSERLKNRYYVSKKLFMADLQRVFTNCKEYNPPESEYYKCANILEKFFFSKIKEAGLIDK

Turning to `CC(C)(C(=O)O)c1ccc(O[C@@H]2CC[C@@H](NC(=O)[C@@]3(F)CNC4(CCC4)C3)C2)c(-c2cccc(F)c2C2CCC2)c1` [Example A1, 2-(2′-cyclobutyl-3′-fluoro-6-{[(1R,3R)-3-{[(7S)-7-fluoro-5-azaspiro[3.4]octane-7-carbonyl]amino}cyclopentyl]oxy}[1,1′-biphenyl]-3-yl)-2-methylpropanoic acid], in series [1], the additional metabolites observed result was “CYP-mediated oxidation on the cyclobutane ring, the gem-dimethyl group and/or one or both of the biaryl rings; also recorded: direct glucose conjugate from UGT enzymes or chemical reaction”. The “most significant metabolite observed” value in series [1] is “glucuronidation of the carboxylic acid group (Acyl glucuronide)”. Further, the IC50 in series [2] stood at 8.16 nM; in series [3] it was 45.3 nM. Further, the figures for the Ki in series [4] and in series [5] were 0.47 nM and 2.65 nM, respectively.

Take `CN1CC(C)(C)C[C@H]1C(=O)N[C@H]1C[C@H](Oc2ccc(CC(=O)O)cc2-c2cccc(F)c2C2CCC2)C[C@H]1O` [Example K4, [2′-cyclobutyl-3′-fluoro-6-({(1S,3R,4S)-3-hydroxy-4-[(1,4,4-trimethyl-L-prolyl)amino]cyclopentyl}oxy)[1,1′-biphenyl]-3-yl]acetic acid]: the IC50 in series [2] stood at 4.56 nM; in series [3], 45.6 nM. The Ki amounted to 0.7 nM in series [4] and 0.94 nM in series [5].

By IC50 is commonly meant the point on the concentration scale where inhibition reaches its midpoint. Low values mean greater potency, high ones weaker potency. A word on the Ki: it is the equilibrium dissociation constant of an inhibitor or competing ligand from its target.
